ChEMBL document CHEMBL1201862, “PubChem BioAssay data set” (2004)
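1) Cells in 96-well plates. 2) Compound, 48 h, 5 concentrations. 3) Linear interpolation between surrounding doses. 4) Unreached endpoint = highest concentration. GI50 is the concentration that inhibits growth by half.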 Calls of active or inactive are those of the source. Rule as the data show it: active = GI50 up to about 1.1 µM and inactive = higher.

Legend:
Assay in all cases: growth of human tumour cells (NCI), 48 h
[1] = tested on: HT-29
[2] = tested on: NCI-H460
[3] = tested on: RXF 393
[4] = tested on: SR
[5] = tested on: SK-MEL-28
[6] = tested on: UO-31
[7] = tested on: KM12
[8] = tested on: OVCAR-5
[9] = tested on: NCI-H23
[10] = tested on: OVCAR-8
[11] = tested on: SF-539
[12] = tested on: COLO 205
[13] = tested on: K562
[14] = tested on: SK-MEL-5
[15] = tested on: A498

Measured: GI50

N=C(c1ccccc1)N1CCCCC1
inactive: [1] > 100 µM | [2] > 100 µM | [3] > 100 µM | [4] > 100 µM | [5] > 100 µM | [6] > 100 µM | [7] > 100 µM | [8] > 100 µM | [9] > 100 µM | [10] > 100 µM | [11] > 100 µM | [12] > 100 µM

O=C1c2c(c3c4ccccc4[nH]c3c3[nH]c4ccccc4c23)C(=O)N1Cc1ccccc1
inactive: [13] 3.05 µM | [1] 4.04 µM | [2] 3.3 µM | [3] 1.51 µM | [5] 2.89 µM | [6] 2.53 µM | [14] 1.85 µM | [7] 3.08 µM | [8] 2.62 µM | [9] 2.08 µM | [10] 4.47 µM | [11] 2.37 µM | [12] 2.2 µM

CC1(C)C2CCC13C(=O)C1OC3(C2)C2C(=O)N(c3ccccc3)C(=O)C12 (centres undefined)
inactive: [13] > 100 µM | [1] 51.4 µM | [2] > 100 µM | [3] > 100 µM | [6] > 100 µM | [14] > 100 µM | [7] > 100 µM | [8] > 100 µM | [9] 38.1 µM | [10] > 100 µM | [15] > 100 µM | [11] > 100 µM | [12] > 100 µM

C[C@@H]1C[C@]2(C[C@@H](C)C3[C@@H](CC4(C)[C@@H]5CCC6C(C)(C)OC(=O)C=C[C@]67C[C@@]5(CC[C@]34C)OO7)O2)OC1=O (some centres undefined)
inactive: [13] 28.1 µM | [1] > 100 µM | [2] 86.7 µM | [3] > 100 µM | [4] > 100 µM | [5] 66.7 µM | [6] 51.8 µM | [14] 37.9 µM | [8] > 100 µM | [9] > 100 µM | [10] 67.5 µM | [11] 35.8 µM | [12] > 100 µM

CC(C)(C)c1ccccc1NS(=O)(=O)c1ccccc1
inactive: [13] 44.9 µM | [1] 66.7 µM | [2] 92 µM | [3] 76.7 µM | [5] > 100 µM | [6] 30.1 µM | [14] 42.4 µM | [7] 65 µM | [8] > 100 µM | [9] > 100 µM | [10] > 100 µM | [15] > 100 µM | [11] > 100 µM

CN(C)c1nnnn1-c1c(N)n(C)c(=O)n(C)c1=O
inactive: [13] > 100 µM | [1] > 100 µM | [2] > 100 µM | [5] > 100 µM | [6] > 100 µM | [14] > 100 µM | [7] > 100 µM | [8] > 100 µM | [9] > 100 µM | [10] > 100 µM | [15] > 100 µM | [11] > 100 µM | [12] > 100 µM

CN(C)c1ccc(/C=C(\C#N)C(=O)c2ccccc2)cc1Br
inactive: [13] 59.8 µM | [1] > 100 µM | [2] > 100 µM | [3] 14.6 µM | [4] 38.5 µM | [5] 46.5 µM | [6] > 100 µM | [14] 96.2 µM | [7] > 100 µM | [8] > 100 µM | [9] > 100 µM | [10] > 100 µM | [11] > 100 µM | [12] > 100 µM

N#CCCN(CCC#N)c1ccc(/C=C2\N=C(COc3ccc(Cl)cc3Cl)OC2=O)cc1
inactive: [13] > 100 µM | [1] > 100 µM | [2] > 100 µM | [5] > 100 µM | [6] > 100 µM | [14] > 100 µM | [7] > 100 µM | [8] > 100 µM | [9] > 100 µM | [10] > 100 µM | [15] > 100 µM | [11] > 100 µM | [12] > 100 µM

N/N=C1\c2ccccc2C2/C(=N\N)c3ccccc3C12 (centres undefined)
inactive: [13] > 100 µM | [1] > 100 µM | [2] > 100 µM | [3] > 100 µM | [5] > 100 µM | [6] > 10 µM | [14] > 100 µM | [7] > 100 µM | [8] > 100 µM | [9] > 100 µM | [10] > 100 µM | [11] > 100 µM | [12] > 100 µM

COc1cc(Nc2cnc3ccc(N)cc3n2)cc(OC)c1OC
inactive: [13] 18.5 µM | [1] 48.9 µM | [2] 69.3 µM | [3] 45.3 µM | [5] 78.2 µM | [6] 37.8 µM | [14] 16.9 µM | [7] 39.4 µM | [8] > 100 µM | [9] 98.6 µM | [10] > 100 µM | [15] > 100 µM | [12] 42.5 µM

O=C1[C@H]2ON(c3ccccc3)C(c3ccccc3Cl)[C@H]2C(=O)N1c1ccc(Cc2ccc(N3C(=O)[C@@H]4ON(c5ccccc5)C(c5ccccc5Cl)[C@@H]4C3=O)cc2)cc1 (some centres undefined)
inactive: [13] > 100 µM | [1] > 100 µM | [2] > 100 µM | [4] > 100 µM | [5] > 100 µM | [6] > 100 µM | [14] 71.3 µM | [7] > 100 µM | [8] > 100 µM | [9] > 100 µM | [10] > 100 µM | [15] > 100 µM | [11] > 100 µM | [12] > 100 µM
